The results in this text go back to patent publication US6875760B2 (Novo Nordisk A/S, priority 1999, dated 2005).

Molecules are shown by their SMILES. pIC50: −log10 of the molar value.

In general, pIC50 refers to the IC50 on a negative log10 scale, so that one unit is a factor of ten.

T1 sequence (P47871 26-477): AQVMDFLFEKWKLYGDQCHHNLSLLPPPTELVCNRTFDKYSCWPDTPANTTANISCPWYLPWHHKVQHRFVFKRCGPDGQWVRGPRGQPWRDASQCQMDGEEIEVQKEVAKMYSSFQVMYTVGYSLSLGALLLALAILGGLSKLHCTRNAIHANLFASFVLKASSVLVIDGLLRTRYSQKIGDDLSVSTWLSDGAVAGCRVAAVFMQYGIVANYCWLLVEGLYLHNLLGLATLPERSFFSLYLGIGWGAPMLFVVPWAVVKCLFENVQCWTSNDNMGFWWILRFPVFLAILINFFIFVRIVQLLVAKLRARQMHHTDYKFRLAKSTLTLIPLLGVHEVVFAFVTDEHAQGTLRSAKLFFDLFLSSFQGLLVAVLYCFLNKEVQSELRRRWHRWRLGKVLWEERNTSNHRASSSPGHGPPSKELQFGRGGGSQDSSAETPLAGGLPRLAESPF

This assay concerns the target T1, human glucagon receptor (Homo sapiens, UniProt P47871).
T1 construct: expressed in transfected cells; host or cells: BHK (baby hamster kidney) cells
Nature of the assay: Glucagon Binding Assay (III). Conditions: BHK cell membranes, WGA SPA beads, 125I-glucagon; read-out: Glu Bd Assay (III) IC50. The essentials: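 Non-specific binding was set with 500 nM glucagon in this SPA-type binding assay using WGA beads. The receptor source was a membrane preparation, kept on ice or at 4 °C, from BHK cells transfected with the human receptor. Scintillation counts were taken after 4 hours of shaking and 8–48 hours of settling.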
`CCCCN1C(=O)c2ccc(NC(=O)N(Cc3ccc(C(=O)Nc4nn[nH]n4)cc3)c3ccc(C4=CCCCC4)cc3)cc2C1=O` [Example 625, 4-[3-(N′-Butylphthalimid-4-yl)-1-(4-cyclohex-1-enylphenyl)ureidomethyl]-N-(2H-tetrazol-5-yl)benzamide]: the pIC50 was 8.15.

As to `CCOC(=O)c1ccc2nc(NC(=O)N(Cc3ccc(C(=O)Nc4nn[nH]n4)cc3)c3ccc(C4CCCCC4)cc3)sc2c1` [Example 343, 2-{3-(4-Cyclohexylphenyl)-3-[4-(2H-tetrazol-5-ylcarbamoyl)benzyl]ureido}benzothiazole-6-carboxylic acid ethyl ester], the pIC50 was 7.00. In the case of `O=C(O)CCNC(=O)c1ccc(CN(C(=O)Oc2ccc([N+](=O)[O-])cc2)c2ccc(C3CCCCC3)cc2)cc1` [Example 413, 3-(4-{[(4-Cyclohexylphenyl)-(4-nitrophenoxycarbonyl)amino]methyl}benzoylamino)propionic acid] it was 5.92; in that of `O=C(Nc1nn[nH]n1)c1ccc(CN(C(=O)Nc2ccc(Cl)c(Cl)c2)c2ccc(C3CCCCC3)cc2)cc1` [Example 346, 4-[1-(4-Cyclohexylphenyl)-3-(3,4-dichlorophenyl)ureidomethyl]-N-(2H-tetrazol-5-yl)benzamide], 7.60. In the case of `CC(C)(C)C1CCC(N(Cc2ccc(C(=O)Nc3nn[nH]n3)cc2)C(=O)Cc2c(Cl)cccc2Cl)CC1` (stereo not drawn) [Example 539, 4-({(4-tert-Butylcyclohexyl)-[2-(2,6-dichlorophenyl)acetyl]amino}methyl)-N-(2H-tetrazol-5-yl)benzamide] it was 6.41. Take `CC(C)(C)C1CCC(N(Cc2ccc(C(=O)Nc3nn[nH]n3)cc2)C(=O)c2cc3cc(OC(F)(F)F)ccc3[nH]2)CC1` (stereo not drawn) [Example 557, 5-Trifluoromethoxy-1H-indole-2-carboxylic acid (4-tert-butylcyclohexyl)-[4-(2H-tetrazol-5-ylcarbamoyl)benzyl]amide]: the negative-log IC50 (pIC50) was 6.58. On to `CC(C)(C)C1CCC(N(Cc2ccc(C(=O)NCCC(=O)O)cc2)C(=O)Nc2ccc(Cl)c(C(F)(F)F)c2)CC1` (stereo not drawn) [Example 74, 3-{4-[1-(4-tert-Butylcyclohexyl)-3-(4-chloro-3-trifluoromethylphenyl)ureidomethyl]benzoylamino}propionic acid], for which the pIC50 was 7.21.

Turning to `CC(=O)c1ccc(NC(=O)N(Cc2ccc(C(=O)NCCC(=O)O)cc2)C2CCC(C(C)(C)C)CC2)cc1` (stereo not drawn) [Example 60, 3-{4-[3-(4-Acetylphenyl)-1-(4-tert-butylcyclohexyl)ureidomethyl]benzoylamino}propionic acid], the negative-log IC50 (pIC50) is 7.08. On to `CC(C)(C)[C@H]1CC[C@H](N(Cc2ccc(C(=O)NCCC(=O)O)cc2)C(=O)Nc2ccc(Cl)cc2Cl)CC1` [Example 35, 3-{4-[1-(4-trans-tert-Butylcyclohexyl)-3-(2,4-dichlorophenyl)ureidomethyl]benzoylamino}propionic acid], for which the pIC50 is 6.45. As for `CC(C)(C)C1CCC(N(Cc2ccc(C(=O)N(CCC(=O)O)CC3CC3)cc2)C(=O)Nc2ccc(OC(F)(F)F)cc2)CC1` (stereo not drawn) [Example 90, 3-({4-[1-(4-tert-Butylcyclohexyl)-3-(4-trifluoromethoxyphenyl)ureidomethyl]benzoyl}cyclopropylmethyl)aminopropionic acid], the negative logarithm of the IC50 (pIC50) is 5.38.

On to `CCNC(=O)c1cccc(NC(=O)N(Cc2ccc(C(=O)Nc3nn[nH]n3)cc2)c2ccc(C(C)(C)C)cc2)c1` [Example 460, N-Ethyl-3-{3-(4-tert-butylphenyl)-3-[4-(2H-tetrazol-5-ylcarbamoyl)benzyl]ureido}benzamide], for which the pIC50 is 5.76.

With `O=C(Nc1nn[nH]n1)c1ccc(CN(C(=O)Cc2cccc(OC(F)(F)F)c2)c2ccc(C3CCCCC3)cc2)cc1` [Example 492, 4-({(4-Cyclohexylphenyl)-[2-(3-trifluoromethoxyphenyl)acetyl]amino}methyl)-N-(2H-tetrazol-5-yl)benzamide], the pIC50 is 6.84.
